Laboratory results: PubChem BioAssay (NCI)
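Values below derive from 48-hour exposures of cells grown in 96-well plates, with endpoints linearly interpolated between the two concentrations bracketing the appropriate inhibition level. GI50: concentration for 50% inhibition of growth. TGI: concentration producing complete growth inhibition.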

Legend:
Experiment in all cases: inhibition of tumour cell growth, NCI panel, 48 h
COLO 205 colon = system: COLO 205 colon
EKVX NSCLC = system: EKVX NSCLC
HCC-2998 colon = system: HCC-2998 colon
HCT-116 colon = system: HCT-116 colon
HL-60(TB) leukemia = system: HL-60(TB) leukemia
KM12 colon = system: KM12 colon
OVCAR-5 ovarian = system: OVCAR-5 ovarian
UACC-62 melanoma = system: UACC-62 melanoma
MDA-MB-231 breast = system: MDA-MB-231 breast
PC-3 prostate = system: PC-3 prostate

| Structure (SMILES) | TGI (COLO 205 colon) [µM] | TGI (EKVX NSCLC) [µM] | TGI (HCC-2998 colon) [µM] | TGI (HCT-116 colon) [µM] | TGI (HL-60(TB) leukemia) [µM] | TGI (KM12 colon) [µM] | TGI (OVCAR-5 ovarian) [µM] | TGI (UACC-62 melanoma) [µM] | GI50 (COLO 205 colon) [µM] | GI50 (HCT-116 colon) [µM] | GI50 (HL-60(TB) leukemia) [µM] | GI50 (KM12 colon) [µM] | GI50 (MDA-MB-231 breast) [µM] | TGI (MDA-MB-231 breast) [µM] | GI50 (OVCAR-5 ovarian) [µM] | GI50 (PC-3 prostate) [µM] | TGI (PC-3 prostate) [µM] | GI50 (UACC-62 melanoma) [µM] | GI50 (EKVX NSCLC) [µM] | GI50 (HCC-2998 colon) [µM] |
| --- | --- | --- | --- | --- | --- | --- | --- | --- | --- | --- | --- | --- | --- | --- | --- | --- | --- | --- | --- | --- |
| COC(=O)CS(=O)c1ccccc1 (configuration not stated) | > 100 | > 100 | > 100 | > 100 | 37 | > 100 | > 100 | > 100 |  |  |  |  |  |  |  |  |  |  |  |  |
| CCOC(=O)C(=O)Nc1c(C)cccc1C(C)C | > 100 | > 100 |  | > 100 | > 100 | > 100 | > 100 | > 100 |  |  |  |  |  |  |  |  |  |  |  |  |
| O=C(O)c1c[nH]c2c(OCc3ccccc3)c3ccccc3c(O)c2c1=O | 34.7 |  |  | 28.2 | 46.1 | 29.4 | 34.2 | 13.3 | 17.6 | 15 | 19.7 | 12.6 | 20.2 | > 100 | 20 | 15.1 | 45.9 | 3.97 |  |  |
| CCOC(=O)NC(=O)c1cn(CCCOC(=O)NCCCCCCNC(=O)OCCCn2cc(C(=O)NC(=O)OCC)c(=O)[nH]c2=O)c(=O)[nH]c1=O | 41 | > 100 | > 100 | > 100 | 41.7 |  |  | 38.8 |  |  |  |  |  |  |  |  |  |  |  |  |
| COc1ccc(NC(=O)CC(=O)N2N=C(N(CCC#N)c3cccc(C)c3)CC2c2ccccc2)cc1 (configuration not stated) | > 100 | > 100 | > 100 | > 100 | > 100 | > 100 | > 100 | > 100 |  |  |  |  |  |  |  |  |  |  |  |  |
| CC1=NC(C(C)C)C(=O)O1 (configuration not stated) | > 100 | > 100 | > 100 | 34.1 | > 100 | > 100 | > 100 | > 100 |  |  |  |  |  |  |  |  |  |  |  |  |
| CC(=O)c1ccc(NC(=O)C(=O)C(C(=O)c2ccc(Cl)c(Cl)c2)C2OC(=O)c3ccccc32)cc1 (configuration not stated) | 28.8 | > 100 | 26.9 | 25.8 | > 100 | 38.1 | 71.5 | 33.7 |  |  |  |  |  |  |  |  |  |  |  |  |
| COC(=O)C1=C(CS(=O)c2ccc([N+](=O)[O-])cc2[N+](=O)[O-])ON(C)C1c1ccccc1 (configuration not stated) | > 65 | > 100 | > 56.7 | > 100 | 24.2 | > 100 | > 100 | > 75.2 |  |  |  |  |  |  |  |  |  |  |  |  |
| N#Cc1c(N)nc(NCc2ccccc2)c(C#N)c1-c1ccccc1Cl | > 100 | 85.3 | > 100 | > 100 |  | > 100 | > 100 | 60.2 | 74 | 16.3 |  | 47 | 5.76 | 33.8 | 26.8 | 12 | > 100 | 12.4 | 24.4 | > 100 |
| C=C(C)[C@@H]1CC[C@]2(C(=O)O)CC[C@]3(C)[C@H](CC[C@@H]4[C@@]5(C)C/C(=C/c6ccc(OC)cc6)C(=O)C(C)(C)[C@@H]5CC[C@]43C)[C@@H]12 |  | 10.5 | 5.73 | 3.82 |  | 4.12 | 12 | 3.13 |  | 1.62 |  | 1.71 | 2.32 | 7.78 | 3.2 | 1.74 | 8.24 | 1.44 | 2.36 | 2.1 |
| O=C(NC1CCCCC1)NS(=O)(=O)c1ccc(-n2nc3c(c2-c2ccc(Cl)cc2)Cc2ccccc2-3)cc1 | > 100 | 37.7 |  | > 100 | 14.6 | 30.4 |  | 24 | 36.2 | 4.18 | 4.28 | 10.6 | 6.43 | 23 |  | 6.28 | 24.4 | 10.9 | 14.2 |  |
| CCC(c1ccc2cc(O)ccc2c1)C(C)(C)C(=O)O (configuration not stated) | > 100 | > 100 | > 100 | > 100 |  | > 100 | > 100 | > 100 |  |  |  |  |  | > 100 |  |  | > 100 |  |  |  |
| O=C(c1nc2ccc(Cl)cc2[nH]c1=O)C(O)c1ccc2c(c1)OCO2 (configuration not stated) | > 100 | > 100 | > 100 |  | > 100 | > 100 | > 100 | > 100 |  |  |  |  |  |  |  |  |  |  |  |  |
| CCC[CH2][Sn]1([CH2]CCC)[O]CC(CN2CCOCC2)[O]1 (configuration not stated) | 9.59 | 11.9 | 21.6 | 21 | 3.62 | 22.5 | 32.8 | 4.55 | 3.58 | 8.84 | 1.17 | 10.4 |  |  | 18.8 |  |  | 1.79 | 2.18 | 8.82 |
| Oc1ccc(-c2cn3cc(Cl)sc3n2)cc1 | 43.4 | > 100 |  |  |  | 74.1 |  | 41.6 | 19.8 |  |  | 20.9 | > 100 | > 100 |  | 15.9 | 46.8 | 5.36 | 47.6 |  |
| CCOC(=O)N[C@@H]1C2CC(=O)C(O2)[C@@H]1OC (some centres not stated) | > 100 | > 100 | > 100 | > 100 | > 100 | > 100 | > 100 | > 100 |  |  |  |  |  |  |  |  |  |  |  |  |
| COC1OC(COS(=O)(=O)c2ccc(C)cc2)C(O)C(OS(=O)(=O)c2ccc(C)cc2)C1OS(=O)(=O)c1ccc(C)cc1 (configuration not stated) | > 100 | > 100 | > 100 | > 100 | > 100 | > 100 | > 100 |  |  |  |  |  |  |  |  |  |  |  |  |  |
| CCOC(=O)C(C(=O)OCC)=C1N[C@H](C(=O)OCC)CS1 | > 100 | > 100 | > 100 | > 100 | > 100 | > 100 | > 100 | > 100 |  |  |  |  |  |  |  |  |  |  |  |  |
| COC1=CC(c2ccc[nH]2)=N/C1=C\c1[nH]c(C)c(C(C)=O)c1C | > 100 | > 100 | > 100 | > 100 |  | > 100 | > 100 |  | 0.79 | 0.0576 | 0.168 | 0.262 |  |  | > 100 | 0.302 | > 100 |  | 2.25 | 2.08 |
| COc1ccc(-c2nc(N3CCOCC3)c3sc(CN(C)c4ncc(C(=O)NO)cn4)cc3n2)cn1 |  |  |  |  | 1.06 |  | 0.0419 |  |  |  | < 0.01 |  | 0.0282 | 0.331 | < 0.01 | < 0.01 | 0.112 |  |  |  |
| CCCc1nc(NC#N)nc(C(=O)NC23CC4CC(CC(C4)C2)C3)c1C | > 100 | > 100 | > 100 | > 100 | > 100 | > 100 | > 100 | > 100 |  |  |  |  |  |  |  |  |  |  |  |  |
